The target in series [1] is T1, ATP-binding cassette sub-family C member 4 (Homo sapiens, UniProt O15439).
T1 sequence (O15439 whole entry): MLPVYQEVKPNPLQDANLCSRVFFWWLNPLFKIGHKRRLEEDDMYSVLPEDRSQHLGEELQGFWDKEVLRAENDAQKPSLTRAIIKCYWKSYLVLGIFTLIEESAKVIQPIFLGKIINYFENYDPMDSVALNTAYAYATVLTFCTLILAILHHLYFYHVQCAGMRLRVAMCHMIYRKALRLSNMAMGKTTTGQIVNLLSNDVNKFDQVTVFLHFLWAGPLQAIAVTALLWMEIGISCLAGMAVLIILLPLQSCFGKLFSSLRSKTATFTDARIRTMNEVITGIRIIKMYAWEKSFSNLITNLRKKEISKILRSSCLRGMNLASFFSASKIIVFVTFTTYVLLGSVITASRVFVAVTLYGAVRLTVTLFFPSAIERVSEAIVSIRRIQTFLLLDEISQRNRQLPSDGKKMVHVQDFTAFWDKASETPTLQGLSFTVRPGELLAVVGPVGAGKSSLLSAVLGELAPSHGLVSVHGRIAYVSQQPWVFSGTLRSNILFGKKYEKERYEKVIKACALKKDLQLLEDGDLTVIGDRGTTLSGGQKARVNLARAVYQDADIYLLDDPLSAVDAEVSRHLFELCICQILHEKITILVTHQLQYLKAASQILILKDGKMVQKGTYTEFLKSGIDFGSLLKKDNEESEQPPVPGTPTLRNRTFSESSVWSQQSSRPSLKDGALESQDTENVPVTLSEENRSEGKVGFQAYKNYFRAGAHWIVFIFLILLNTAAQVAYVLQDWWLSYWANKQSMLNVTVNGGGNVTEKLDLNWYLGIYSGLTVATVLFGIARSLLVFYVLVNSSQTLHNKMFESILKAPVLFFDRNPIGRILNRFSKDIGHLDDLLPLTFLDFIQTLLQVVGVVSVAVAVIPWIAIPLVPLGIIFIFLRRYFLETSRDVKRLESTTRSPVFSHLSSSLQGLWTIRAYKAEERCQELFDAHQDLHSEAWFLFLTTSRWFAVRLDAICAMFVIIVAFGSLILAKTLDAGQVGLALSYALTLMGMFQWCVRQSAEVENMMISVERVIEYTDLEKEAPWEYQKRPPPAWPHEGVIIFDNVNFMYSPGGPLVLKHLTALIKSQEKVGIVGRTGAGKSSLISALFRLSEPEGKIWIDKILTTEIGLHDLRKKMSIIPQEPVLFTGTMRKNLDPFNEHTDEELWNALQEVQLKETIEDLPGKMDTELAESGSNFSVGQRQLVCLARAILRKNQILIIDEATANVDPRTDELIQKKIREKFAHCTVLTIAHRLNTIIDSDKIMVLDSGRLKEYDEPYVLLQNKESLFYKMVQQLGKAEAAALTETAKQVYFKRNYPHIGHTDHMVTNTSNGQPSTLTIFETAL
The experiment in a line: Inhibition of human MRP4 overexpressed in Sf9 cell membrane vesicles assessed as uptake of [3H]-estradiol-17beta-D-glucuronide in presence of ATP and GSH measured after 20 mins by membrane vesicle transport assay. Format: ADME, cell-based.

Series [2] is described as follows: Ratio of drug concentration at steady state in human at 300 to 600 mg, po QD after 24 hrs to IC50 for human BSEP overexpressed in Sf9 insect cells. The format is ADME, organism-based. To be noted: in vivo.
The target of series [3] is ATP-binding cassette sub-family C member 2 (Homo sapiens, UniProt Q92887). Briefly: Inhibition of human MRP2 overexpressed in Sf9 cell membrane vesicles assessed as uptake of [3H]-estradiol-17beta-D-glucuronide in presence of ATP and GSH measured after 20 mins by membrane vesicle transport assay.
Series [4] is described as follows: Ratio of drug concentration at steady state in human at 300 to 600 mg, po QD after 24 hrs to IC50 for human MRP4 overexpressed in Sf9 insect cells. Format: ADME, organism-based. To be noted: in vivo.
Series [5] addresses ATP-binding cassette sub-family C member 3 (Homo sapiens, UniProt O15438). Briefly: Inhibition of human MRP3 overexpressed in Sf9 insect cell membrane vesicles assessed as uptake of [3H]-estradiol-17beta-D-glucuronide in presence of ATP and GSH measured after 10 mins by membrane vesicle transport assay. The format is ADME, cell-based.
Series [6] can be described thus: AUC in human at 300 to 600 mg, po QD after 24 hrs. The format is ADME, organism-based. To be noted: in vivo.
Series [7] can be described thus: Drug concentration at steady state in human at 300 to 600 mg, po QD after 24 hrs. The format is ADME, organism-based. As to conditions: in vivo, read-out: Css.
For a further series, the target named is Bile salt export pump (Homo sapiens, UniProt O95342). The experiment in a line: Inhibition of human BSEP overexpressed in Sf9 cell membrane vesicles assessed as uptake of [3H]-taurocholate in presence of ATP measured after 15 to 20 mins by membrane vesicle transport assay. The format is ADME, cell-based.
A short description of series [8]: Ratio of drug concentration at steady state in human at 20 to 40 mg, po QD after 24 hrs to IC50 for human BSEP overexpressed in Sf9 insect cells. To be noted: in vivo. Format: ADME, organism-based.
Series [9] in a line: Ratio of drug concentration at steady state in human at 20 to 40 mg, po QD after 24 hrs to IC50 for human MRP4 overexpressed in Sf9 insect cells. Format: ADME, organism-based. To be noted: in vivo.
The nature of series [10]: Ratio of drug concentration at steady state in human at 20 to 40 mg, po QD after 24 hrs to IC50 for human MRP3 overexpressed in Sf9 insect cells. Format: ADME, organism-based. As to conditions: in vivo.
Series [11] in a line: AUC in human at 20 to 25 mg/kg, po TID after 8 hrs. To be noted: in vivo. The format is ADME, organism-based.
The nature of series [12]: Drug concentration at steady state in human at 20 to 25 mg/kg, po TID after 8 hrs. Format: ADME, organism-based. As to conditions: in vivo, read-out: Css.
Series [13] can be described thus: Ratio of drug concentration at steady state in human at 20 to 25 mg/kg, po TID after 8 hrs to IC50 for human BSEP overexpressed in Sf9 insect cells. The format is ADME, organism-based. As to conditions: in vivo.
Series [14] can be described thus: Ratio of drug concentration at steady state in human at 150 to 600 mg, iv QD after 24 hrs to IC50 for human MRP2 overexpressed in Sf9 insect cells. The format is ADME, organism-based. To be noted: in vivo.
Series [15] in a line: AUC in human at 150 to 600 mg, iv QD after 24 hrs. The format is ADME, organism-based. As to conditions: in vivo.
The nature of series [16]: Ratio of drug concentration at steady state in human at 150 to 600 mg, iv QD after 24 hrs to IC50 for human MRP3 overexpressed in Sf9 insect cells. Format: ADME, organism-based. As to conditions: in vivo.
Series [17] can be described thus: Ratio of drug concentration at steady state in human at 150 to 600 mg, iv QD after 24 hrs to IC50 for human MRP4 overexpressed in Sf9 insect cells. The format is ADME, organism-based. To be noted: in vivo.
Series [18] in a line: Drug concentration at steady state in human at 150 to 600 mg, iv QD after 24 hrs. The format is ADME, organism-based. As to conditions: in vivo, read-out: Css.
Series [19] is described as follows: Ratio of drug concentration at steady state in human at 150 to 600 mg, iv QD after 24 hrs to IC50 for human BSEP overexpressed in Sf9 insect cells. Format: ADME, organism-based. As to conditions: in vivo.
Series [20] in a line: Ratio of drug concentration at steady state in human at 2 to 8 mg, po QD after 24 hrs to IC50 for human BSEP overexpressed in Sf9 insect cells. Format: ADME, organism-based. To be noted: in vivo.
A short description of series [21]: Ratio of drug concentration at steady state in human at 2 to 8 mg, po QD after 24 hrs to IC50 for human MRP4 overexpressed in Sf9 insect cells. As to conditions: in vivo. The format is ADME, organism-based.
The nature of series [22]: Drug concentration at steady state in human at 2 to 8 mg, po QD after 24 hrs. As to conditions: in vivo, read-out: Css. Format: ADME, organism-based.
The nature of series [23]: AUC in human at 2 to 8 mg, po QD after 24 hrs. Format: ADME, organism-based. As to conditions: in vivo.

ATP-binding cassette sub-family C member 3, sequence (O15438 whole entry): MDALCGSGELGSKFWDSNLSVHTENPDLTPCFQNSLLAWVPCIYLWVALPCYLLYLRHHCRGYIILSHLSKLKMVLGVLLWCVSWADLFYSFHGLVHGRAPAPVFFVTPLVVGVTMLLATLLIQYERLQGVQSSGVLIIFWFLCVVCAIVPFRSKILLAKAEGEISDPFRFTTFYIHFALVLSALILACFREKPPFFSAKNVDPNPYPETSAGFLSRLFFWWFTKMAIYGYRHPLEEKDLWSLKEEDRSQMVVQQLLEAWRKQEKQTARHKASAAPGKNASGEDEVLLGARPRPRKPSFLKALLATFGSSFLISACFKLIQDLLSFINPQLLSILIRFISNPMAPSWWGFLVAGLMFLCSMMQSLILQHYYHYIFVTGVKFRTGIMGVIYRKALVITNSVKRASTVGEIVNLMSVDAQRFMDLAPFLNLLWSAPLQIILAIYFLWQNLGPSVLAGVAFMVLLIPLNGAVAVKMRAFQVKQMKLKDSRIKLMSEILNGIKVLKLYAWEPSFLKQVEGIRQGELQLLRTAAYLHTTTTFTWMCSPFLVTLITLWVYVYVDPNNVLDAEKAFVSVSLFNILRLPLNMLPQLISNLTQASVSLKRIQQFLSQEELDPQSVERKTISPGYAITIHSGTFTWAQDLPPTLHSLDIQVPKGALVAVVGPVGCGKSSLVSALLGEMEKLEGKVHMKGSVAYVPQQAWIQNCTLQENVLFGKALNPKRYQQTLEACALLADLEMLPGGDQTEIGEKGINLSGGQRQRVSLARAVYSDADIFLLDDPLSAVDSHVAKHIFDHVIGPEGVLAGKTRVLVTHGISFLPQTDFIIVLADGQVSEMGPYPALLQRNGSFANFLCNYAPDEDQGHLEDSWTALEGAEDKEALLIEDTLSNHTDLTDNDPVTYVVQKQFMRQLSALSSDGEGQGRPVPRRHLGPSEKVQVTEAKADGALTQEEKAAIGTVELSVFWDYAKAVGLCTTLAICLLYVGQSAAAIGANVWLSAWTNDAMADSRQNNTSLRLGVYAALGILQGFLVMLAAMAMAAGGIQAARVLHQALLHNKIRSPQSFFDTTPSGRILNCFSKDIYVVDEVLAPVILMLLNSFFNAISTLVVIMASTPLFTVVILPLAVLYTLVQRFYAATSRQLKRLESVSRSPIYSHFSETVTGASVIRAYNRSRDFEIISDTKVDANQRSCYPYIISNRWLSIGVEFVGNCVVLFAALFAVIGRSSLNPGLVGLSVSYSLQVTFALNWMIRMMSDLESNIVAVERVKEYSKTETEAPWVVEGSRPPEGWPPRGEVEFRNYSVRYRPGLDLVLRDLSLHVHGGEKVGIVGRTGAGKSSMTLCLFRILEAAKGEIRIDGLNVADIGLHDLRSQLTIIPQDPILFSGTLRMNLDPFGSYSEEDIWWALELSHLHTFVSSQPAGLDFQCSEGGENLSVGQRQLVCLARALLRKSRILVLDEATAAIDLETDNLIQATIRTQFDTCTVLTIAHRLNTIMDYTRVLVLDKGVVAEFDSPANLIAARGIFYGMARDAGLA
ATP-binding cassette sub-family C member 2, sequence (Q92887 whole entry): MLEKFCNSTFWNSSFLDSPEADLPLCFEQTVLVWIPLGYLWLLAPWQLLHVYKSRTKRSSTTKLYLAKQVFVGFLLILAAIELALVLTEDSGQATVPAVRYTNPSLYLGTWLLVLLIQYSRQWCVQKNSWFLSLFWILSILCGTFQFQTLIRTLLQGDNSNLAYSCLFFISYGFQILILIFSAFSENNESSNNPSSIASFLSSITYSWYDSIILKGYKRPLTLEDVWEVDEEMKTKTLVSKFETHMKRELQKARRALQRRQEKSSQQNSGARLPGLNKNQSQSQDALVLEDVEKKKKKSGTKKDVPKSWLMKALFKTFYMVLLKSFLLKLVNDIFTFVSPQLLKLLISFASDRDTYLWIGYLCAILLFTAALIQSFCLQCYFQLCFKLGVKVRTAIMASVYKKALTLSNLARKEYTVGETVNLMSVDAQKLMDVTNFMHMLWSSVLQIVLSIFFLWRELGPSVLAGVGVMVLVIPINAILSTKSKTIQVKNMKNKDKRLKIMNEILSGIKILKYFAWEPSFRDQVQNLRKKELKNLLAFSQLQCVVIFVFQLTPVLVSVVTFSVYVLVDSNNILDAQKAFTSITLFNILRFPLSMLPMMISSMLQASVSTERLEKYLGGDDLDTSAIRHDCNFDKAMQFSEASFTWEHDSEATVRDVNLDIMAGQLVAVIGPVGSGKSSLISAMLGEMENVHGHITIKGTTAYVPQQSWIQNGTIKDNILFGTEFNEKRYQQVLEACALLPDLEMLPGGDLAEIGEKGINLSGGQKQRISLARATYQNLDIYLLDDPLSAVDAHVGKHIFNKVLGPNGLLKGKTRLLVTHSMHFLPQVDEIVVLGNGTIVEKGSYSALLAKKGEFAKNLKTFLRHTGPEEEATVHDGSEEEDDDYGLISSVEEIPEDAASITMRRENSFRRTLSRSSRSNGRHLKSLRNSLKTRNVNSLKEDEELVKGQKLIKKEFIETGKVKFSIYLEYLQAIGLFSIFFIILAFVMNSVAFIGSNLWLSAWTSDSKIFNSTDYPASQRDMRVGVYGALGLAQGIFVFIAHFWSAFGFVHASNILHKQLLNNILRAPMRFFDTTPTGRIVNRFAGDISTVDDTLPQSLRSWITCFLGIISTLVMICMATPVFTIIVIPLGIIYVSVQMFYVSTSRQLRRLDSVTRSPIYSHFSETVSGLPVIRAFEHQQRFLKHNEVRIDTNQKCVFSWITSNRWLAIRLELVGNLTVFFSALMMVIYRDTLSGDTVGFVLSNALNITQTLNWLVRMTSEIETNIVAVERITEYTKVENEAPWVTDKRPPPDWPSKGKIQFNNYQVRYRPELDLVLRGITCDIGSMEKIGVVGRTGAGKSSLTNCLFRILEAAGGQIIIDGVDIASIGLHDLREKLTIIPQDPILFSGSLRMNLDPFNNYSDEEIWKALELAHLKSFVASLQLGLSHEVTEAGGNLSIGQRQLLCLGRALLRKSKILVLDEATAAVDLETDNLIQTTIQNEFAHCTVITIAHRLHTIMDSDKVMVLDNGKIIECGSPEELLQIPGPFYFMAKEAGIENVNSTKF
Bile salt export pump, sequence (O95342 whole entry): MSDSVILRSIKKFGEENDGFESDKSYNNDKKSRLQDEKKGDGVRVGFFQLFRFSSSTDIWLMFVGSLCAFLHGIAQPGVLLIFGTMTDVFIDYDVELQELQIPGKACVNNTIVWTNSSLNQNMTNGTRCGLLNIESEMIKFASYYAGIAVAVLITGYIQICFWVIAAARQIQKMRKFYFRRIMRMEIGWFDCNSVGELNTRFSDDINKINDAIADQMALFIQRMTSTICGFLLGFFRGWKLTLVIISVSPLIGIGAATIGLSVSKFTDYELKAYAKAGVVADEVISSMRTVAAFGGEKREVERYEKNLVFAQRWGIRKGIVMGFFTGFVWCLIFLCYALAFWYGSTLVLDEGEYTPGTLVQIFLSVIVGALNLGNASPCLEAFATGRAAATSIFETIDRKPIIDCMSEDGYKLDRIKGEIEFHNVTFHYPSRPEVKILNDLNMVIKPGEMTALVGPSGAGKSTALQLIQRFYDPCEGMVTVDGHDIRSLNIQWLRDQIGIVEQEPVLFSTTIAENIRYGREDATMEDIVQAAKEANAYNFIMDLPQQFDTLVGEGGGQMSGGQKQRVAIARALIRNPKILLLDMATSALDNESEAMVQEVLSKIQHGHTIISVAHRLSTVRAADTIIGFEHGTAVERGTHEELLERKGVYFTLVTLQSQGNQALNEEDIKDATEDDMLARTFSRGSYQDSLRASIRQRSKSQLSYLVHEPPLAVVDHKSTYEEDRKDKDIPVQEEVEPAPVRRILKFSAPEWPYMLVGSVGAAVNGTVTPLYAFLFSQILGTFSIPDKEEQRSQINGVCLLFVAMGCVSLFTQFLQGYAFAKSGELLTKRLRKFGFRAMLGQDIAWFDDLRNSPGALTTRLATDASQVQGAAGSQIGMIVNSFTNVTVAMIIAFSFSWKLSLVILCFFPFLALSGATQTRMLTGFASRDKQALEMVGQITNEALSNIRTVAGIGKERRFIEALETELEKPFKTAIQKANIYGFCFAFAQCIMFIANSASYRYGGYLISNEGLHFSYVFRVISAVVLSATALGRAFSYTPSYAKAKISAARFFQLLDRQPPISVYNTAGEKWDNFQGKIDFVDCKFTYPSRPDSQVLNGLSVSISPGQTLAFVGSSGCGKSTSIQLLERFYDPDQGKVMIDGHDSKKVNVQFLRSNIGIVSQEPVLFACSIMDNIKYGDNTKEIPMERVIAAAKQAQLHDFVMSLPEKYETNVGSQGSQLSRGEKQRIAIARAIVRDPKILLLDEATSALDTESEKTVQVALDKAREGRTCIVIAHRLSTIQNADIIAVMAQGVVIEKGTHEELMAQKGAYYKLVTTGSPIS

A word on the IC50: it is the concentration at which inhibition is half-maximal. Broadly, the AUC is concentration integrated over time. A lower AUC goes with low exposure. Take `CCc1nn(CCCN2CCN(c3cccc(Cl)c3)CC2)c(=O)n1CCOc1ccccc1` [NEFAZODONE]: the concentration for half-maximal inhibition (IC50) in series [1] was 71 µM; in series [3], over 133 µM; in [5], over 133 µM. For the same compound, the Ratio was 0.099 in series [2] and 0.009 in series [4]. This compound also registered an AUC at 24 h in [6] of 14.5 µM·h. Besides, in [7], the concentration at 24 h was determined as 604 nM.
On to `CCCc1nc(C(C)(C)O)c(C(=O)OCc2oc(=O)oc2C)n1Cc1ccc(-c2ccccc2-c2nnn[nH]2)cc1` [OLMESARTAN MEDOXOMIL], for which the IC50 on Bile salt export pump was determined as 4.73 µM; in series [1] it was 28.5 µM; in [5], 2 µM. In addition, the Ratio was 0.081 in series [8], 0.014 in series [9] and 0.192 in [10].
As for `O=C(C1CCCCC1)N1CC(=O)N2CCc3ccccc3C2C1` (stereo unspecified) [PRAZIQUANTEL], the exposure (AUC) at 8 h in series [11] is 50.4 µM·h. Besides, the concentration at 8 h in [12] is 6300 nM. Moreover, the IC50 is 67.1 µM at Bile salt export pump, over 133 µM in [1], over 133 µM in series [3] and over 133 µM in series [5]. Also, the Ratio in series [13] worked out at 0.094.
As to `CO[C@H]1/C=C/O[C@@]2(C)Oc3c(C)c(O)c4c(O)c(c(/C=N/N5CCN(C)CC5)c(O)c4c3C2=O)NC(=O)/C(C)=C\C=C\[C@H](C)[C@H](O)[C@@H](C)[C@@H](O)[C@@H](C)[C@H](OC(C)=O)[C@@H]1C` [RIFAMPIN], the Ratio in [14] is given as 0.07; in [16], 0.054; in [17], 0.089; in [19], 0.147. Also, the IC50 in series [1] stood at 41.9 µM; in series [3], 53 µM; in [5] it was 69 µM. Besides, the AUC at 24 h in series [15] stood at 89.4 µM·h. For the same compound, the concentration at 24 h in series [18] came to 3730 nM.
`CN(CCOc1ccc(CC2SC(=O)NC2=O)cc1)c1ccccn1` (stereo unspecified) [ROSIGLITAZONE]: the Ratio in [20] was found to be 0.119; in series [21], 0.016. Moreover, the IC50 at Bile salt export pump is 2.8 µM; in [1], 21 µM; in series [5], over 133 µM. For the same compound, in [22], the concentration at 24 h turned out to be 334 nM. In [23], this compound came in with an AUC at 24 h of 8.02 µM·h.

These data come from ChEMBL document CHEMBL4028801, “A multifactorial approach to hepatobiliary transporter assessment enables improved therapeutic compound development” (Toxicol Sci, 2013).
